Bridge positions count the residues as written; N and C are the ends. Ends that are not written are not given here.

In series [1] the test system is K562 cells. In words: Trypan blue dye exclusion assay. The class given is cell-based, human. The settings on record: K562, 1×10^6 cells/ml, serum-free RPMI-1640, first 3 h of incubation. How it is done: Living cells exclude the dye, so that their cytoplasm remains clear. When damaged cells take up the dye, it binds to intracellular proteins and renders them a blue color. Cells suspended to a concentration of 1 × 10^6 per ml in RPMI-1640 medium (serum-free) were incubated with various concentrations of the peptides of interest for various periods of time at 37°C and 5% CO2. Then they were stained with 0.2% trypan blue dye solution in PBS for 3 min at room temperature, and dead and living cells were counted using a hemocytometer. Percentage of viable cells was calculated as follows:
(3) Viable cells (%) =total number of viable cells/total number of cells×100%,
Experiments were repeated three times before plotting time-killing curves. For each time point, data are presented as mean with standard deviation (SD).

The subject of series [2] is K562 cells. In words: Annexin V-Cy3 apoptosis detection assay. In kind it is cell-based, human. The settings on record: K562, 2 h incubation with peptide, Annexin-Cy3.18/6-CFDA staining. An excerpt:
Annexin V-Cy3 Apoptosis Detection kit (Sigma, USA) was used to distinguish between cells dying via necrosis and cells entering apoptosis. This kit includes a combination of red and green fluorescent dyes; 6-Carboxyfluorescein diacetate (6-CFDA) is hydrolyzed by esterases inside viable (still functional) cells, producing the green fluorescent compound 6-carboxyfluorescein. Annexin-Cy3.18, giving red fluorescence, binds to phosphatidylserine which only becomes exposed in the outer leaflet of the plasma membrane for cells entering the apoptotic process, or if the plasma membrane is damaged during necrosis. Thus, living cells are only stained green, necrotic ones are only stained red, while cells in the early stages of apoptosis are stained by both dyes.
To assess the effects of the peptides, cells were incubated in their presence for 2 h under the same conditions as described for trypan blue assay. […] After 10 min incubation at room temperature cells were washed from excess dyes with 1 × binding buffer and analyzed under the luminescent microscope (Leica DM2500, Leica Microsystems, Germany). […] The resulting percentage of viable, apoptotic, and necrotic cells are shown as mean with SD, calculated based on three independent experiments.

A further series concerns E. coli ML-35p. As to the kind of experiment: Broth microdilution assay (MIC). In kind it is cell-based, Escherichia coli. The following applies: 50% MH broth/50% 10 mM Na-P buffer pH 7.4 with 0.1% BSA, 1×10^6 CFU/ml, 20 h, median of 3–6 independent experiments in triplicate. How it is done:
The minimal inhibitory concentrations (MIC) of peptides were determined using microdilution assay in Müller–Hinton (MH) broth in general accordance with the guidelines of the European Committee for Antimicrobial Susceptibility Testing. Test plates were additionally pretreated with 0.1% bovine serum albumin (BSA) in distilled H2O (incubated for 1 h at 37°C) to reduce possible non-specific binding of peptides to the plastic surface of the wells, as proposed for AMP activity measuring ([Tossi et al., 1997]; [Wiegand et al., 2008]). Two-fold serial dilutions of peptides starting with 2 × stock concentration were prepared in sterile 10 mM sodium phosphate (Na-P) buffer, pH 7.4, with 0.1% BSA. Thus, final solutions contained 50% of Na-P diluted peptide and 50% of MH broth with bacteria. Bacteria for testing were grown overnight, then transferred into a fresh portion of 2.1% MH medium and additionally incubated for 2–3 h to obtain bacterial culture in its mid-logarithmic growth phase, which was diluted down to the final concentration of 1 × 10^6 CFU/ml. Concentration of bacteria in growth medium was calculated based on its absorbance at 620 nm.
After 20 h of incubation of AMPs with bacteria MICs were determined as lowest concentrations of AMPs completely preventing the visible growth of bacteria. Tests were performed in 60-well Terasaki microplates (10 µl end volume, V-shaped bottom; Sarstedt, Germany); dilutions in each test were made in triplicate. Final MIC values were calculated as medians based on the results of 3–5 independent experiments.
(In general: In broth dilution the organism is exposed to a series of concentrations in liquid medium.)

Series [3] in a line: Standard acute toxicity test. The settings on record: at the utilized doses (1 or 100 μg per animal); data not shown. In kind it is in vivo.
A further series is described as follows: MTT test. The class given is cell-based. The following applies: human, serum-free RPMI-1640, overnight incubation, mean ± SD of three independent tests, read-out: IC50 of cytotoxic action toward human PBMC. How it is done: Cytotoxic activity of peptides toward various types of eukaryotic cells was assessed using the standard MTT [3-(4,5-Dimethylthiazol-2-yl)-2,5-diphenyltetrazolium bromide] test ([Mosmann, 1983]). Human peripheral blood mononuclear cells (PBMC) were isolated from the peripheral blood of healthy donors. Whole heparinized blood diluted 3-fold with sterile PBS was carefully layered upon the 5 ml of the sterile Ficoll-400 (Pharmacia, Sweden) with a density of 1.077 in a sterile 50 ml conical tube and then centrifuged at 600 g and 4°C for 40 min. The mononuclear “ring” remaining above the Ficoll was collected using a transfer pipette and placed in another tube. Cells were washed twice with sterile PBS, resuspended in RPMI-1640 culture medium and immediately used for the test. Tumor cell lines were purchased from Biolot (Saint Petersburg, Russia) and cultured at 37°C and 5% CO2 in RPMI-1640 medium (Biolot, Saint Petersburg, Russia) supplemented with 10% fetal bovine serum, glutamine, and penicillin-streptomycin combination. For the experiments, cells were washed from the medium they were growing in and resuspended in serum- and antibiotic-free RPMI-1640. Cells were added at not less than 2 × 10^4 per well in sterile flat bottom 96-well microplates containing serial dilutions of tested peptides in RPMI-1640. For the positive control (100% viable cells), RPMI-1640 medium was used instead of the peptide solution, whereas for the negative control (0% viable cells) medium replaced both peptide and cells. Test plates were incubated at 37°C and 5% CO2 overnight, after which MTT metabolic marker in PBS (5 mg/ml) was introduced into each well. After an additional 4 h incubation, the reaction was stopped by adding isopropanol supplemented with 0.04 M HCl, in which the formazan crystals (formed as a result of MTT reduction in presence of metabolically active cells) were dissolved, and OD at 540 nm was measured. Background absorbance at 690 nm was subtracted from the results to countervail any unspecific OD fluctuations. The % of surviving cells was found as:
(2) Survival(%)=(ODsample−OD0% viable)/(OD100% viable−OD0% viable)×100%,
where ODsample, OD0% viable, and OD100% viable are respectively values of the OD at 540 nm minus the OD at 690 nm for the test sample and negative or positive controls. IC50 toxicity values were determined by nonlinear regression analysis of the dose response curves using Sigma Plot 11 (Systat Software Inc., USA). The experiments were repeated three times, with 3 parallels of samples and 4–6 parallels of controls each time.
(In general: Formazan colour is commonly taken as a measure of viable cells.)

In another series the test system is P. aeruginosa MDR 522/17. In kind it is cell-based, Pseudomonas aeruginosa. The settings on record: MDR 522/17, 24 h. How it is done:
(§1) Quantification of the biofilms forming in the presence of various concentrations of tested AMPs was performed using the crystal violet assay according to general guidelines ([Merritt et al., 2006]). Tests were performed in polystyrene 96-well plates with U-shaped bottom. Peptides were serially diluted in a bacterial growth medium (MH for A. baumannii or TSB for P. aeruguinosa) in a volume of 50 μl per well. Overnight cultures of tested bacteria in a stationary phase of growth were 50 times diluted and introduced into the experimental wells at the same volume of 50 μl. Samples were incubated for 24 h at 37°C. The content of the wells was then shacked out, the plates were gently washed from unattached planktonic bacteria in still water (poured into a large enough vessel); bacterial cells and matrix components adhered to the walls of the wells were stained with a 0.1% aqueous solution of crystal violet dye: 125 μl of dye solution was put into each well and incubated at room temperature for 10 min. After staining dye solution was removed, the plates were washed with clean water and allowed to air-dry. Finally, the bound dye was redissolved by adding 200 μl of 30% acetic acid into each well, incubating it for 15 min at room temperature, and then thoroughly mixing the content of the wells by pipetting. One hundred and twenty five microliters of crystal violet extract from each well were transferred into a flat-bottomed microtiter plate, and the optical density was measured at a wavelength of 560–595 nm (depending on the maximum of absorption in a particular experiment). Experimental samples were made in quadruplicates, and there were 8–9 repeats of control samples without peptides in each test. Presented results are medians calculated based on 3 independent experiments.

The next series deals with A. baumannii 7226/16. In kind it is cell-based, Acinetobacter baumannii. The following applies: 7226/16, 24 h. How it is done:
as §1, with “After staining dye solution was removed, the plates were washed with clean water and allowed to air-dry. Finally, the bound dye was redissolved by adding 200 μl of 30% acetic acid into each well, incubating it for 15 min at room temperature, and then thoroughly mixing the content of the wells by pipetting.” left out, “Experimental samples were made in quadruplicates, and there were 8–9 repeats of control samples without peptides in each test.” left out

The subject of another series is human erythrocytes. The settings on record: cited from earlier work. The source says:
The majority of AMPs are membranolytic, and even though eukaryotic cell membranes are less anionic than those of bacterial cells, have a lower membrane potential and are protected by the presence of cholesterol ([Matsuzaki, 2009]), they are considered to be a secondary target, affecting the selectivity of AMPs. […] The hemolysis assay is widely utilized for the express analysis of the toxic properties of AMPs, relating to their membranolytic activity. It was previously shown that na ...

On to “protegrin 1 (RGGRLCYCRRRFCVCVGR-NH2; disulfide 8-13, 6-15; ends not checked; UniProt P32194 131-148, looked up) [PG-1]”, for which the “Dynamics of cytocidal action” value in the series on K562 cells [1] is “swift and pronounced effect, observable in the first 30 min of exposure”. The “Apoptosis versus necrosis” value in the series on K562 cells [2] was “prominent, dose-dependent prevalence of necrosis over apoptosis”.

The substance “RFRLPFRRIHPPPFVRIHPPPFYRRFL [ChBac3.4-1-COOH]” gave a minimal inhibitory concentration (MIC) against E. coli ML-35p of 2 to 4 µM. The “Toxic action in acute toxicity test” value in series [3] is recorded as “no visible signs of toxic action”.

The substance “RFRLPFRRPPIRIHPPPFYPPFRRFL-NH2 [ChBac3.4-NH2]” displayed an MIC against E. coli ML-35p of 2 µM. For the same substance, the concentration for half-maximal inhibition (IC50) in the series “MTT test” turned out to be 18.6 ± 0.8 µM. Moreover, the Biofilm inhibition with P. aeruginosa MDR 522/17 worked out at 63 ± 9%; in the series on A. baumannii 7226/16, 56 ± 12%. For the same substance, the “Hemolytic activity” value in the series with human erythrocytes is reported as “not hemolytic”.

Usually MIC stands for the least concentration at which growth counts as inhibited. High values mean weaker potency, low ones greater potency. One may read the IC50 as the concentration that gives 50% inhibition.

These data come from publication PMC7604311, “Caprine Bactenecins as Promising Tools for Developing New Antimicrobial and Antitumor Drugs” (Frontiers in Cellular and Infection Microbiology, 2020).
